# According to patent US20140206017A1, “LYSYL OXIDASE-LIKE 2 ASSAY AND METHODS OF USE THEREOF” (priority 2011, published 2014):
# Values joined by “and” are separate entries in the source; they are usually repeats but may differ in a detail not shown here. Equal values may be shown once. Where a name gives a salt, the structure may show the parent alone.
# Legend:
# [1] = tested on: liver fibrosis in subjects with chronic hepatitis B (CHB); test: Liver biopsy (Ishak fibrosis score) in CHB subjects before and after 240 weeks of TDF; format: in vivo, human; conditions: for Chance of regression of cirrhosis at week 240: cirrhotic subjects
# Protocol: Serum LOXL2 levels were assessed in subjects with chronic hepatitis B (CHB) and liver fibrosis, both before treatment and after 240 weeks of treatment with 300 mg tenofovir disoproxil fumarate (TDF). Liver biopsies were taken from 348 human subjects with CHB, prior to treatment and after 240 weeks of treatment with TDF. The biopsies were scored by pathologists using the Ishak scale for assessment of fibrosis. […] Of the 96 subjects who began the study with biopsy-proven cirrhosis, 74% had regression of cirrhosis after 240 weeks of treatment. […] At week 240 following treatment, 42 of these 81 subjects had cirrhosis regression, 16 had persistent cirrhosis, 2 had progressed to cirrhosis over the course of treatment, 18 were non-cirrhotic subjects with no change in fibrosis, and 3 were non-cirrhotic subjects with at least a 2-point reduction in fibrosis as measured by Ishak.
# serum LOXL2 = test: Serum LOXL2 by ELISA at baseline and week 240 of TDF treatment in CHB subjects; format: in vivo, human; conditions: for Median serum LOXL2: LOQ = 440 pg/mL
# Text: At week 240 following treatment, 42 of these 81 subjects had cirrhosis regression, 16 had persistent cirrhosis, 2 had progressed to cirrhosis over the course of treatment, 18 were non-cirrhotic subjects with no change in fibrosis, and 3 were non-cirrhotic subjects with at least a 2-point reduction in fibrosis as measured by Ishak.
# cancer = test: Cancer patients treated with anti-LOXL2 antibody AB0024: time to progression; format: in vivo, human; conditions: individual cancer patients
# Text: Blood samples were obtained at Day 1 on which anti-LOXL2 treatment began (sample taken before anti-LOXL2 treatment); and on days 29 and 57 following the beginning of anti-LOXL2 treatment.
# LOXL2 = target: T1, LOXL2 (Homo sapiens, UniProt Q9Y4K0); test: LOXL2 immunoassay of plasma/serum from patients receiving AB0024; format: in vivo; conditions: samples day 1 (pre-dose), 29 and 57
# T1 construct: from tissue; host or cells: plasma and serum of human cancer patients
# T1 sequence (Q9Y4K0 26-774): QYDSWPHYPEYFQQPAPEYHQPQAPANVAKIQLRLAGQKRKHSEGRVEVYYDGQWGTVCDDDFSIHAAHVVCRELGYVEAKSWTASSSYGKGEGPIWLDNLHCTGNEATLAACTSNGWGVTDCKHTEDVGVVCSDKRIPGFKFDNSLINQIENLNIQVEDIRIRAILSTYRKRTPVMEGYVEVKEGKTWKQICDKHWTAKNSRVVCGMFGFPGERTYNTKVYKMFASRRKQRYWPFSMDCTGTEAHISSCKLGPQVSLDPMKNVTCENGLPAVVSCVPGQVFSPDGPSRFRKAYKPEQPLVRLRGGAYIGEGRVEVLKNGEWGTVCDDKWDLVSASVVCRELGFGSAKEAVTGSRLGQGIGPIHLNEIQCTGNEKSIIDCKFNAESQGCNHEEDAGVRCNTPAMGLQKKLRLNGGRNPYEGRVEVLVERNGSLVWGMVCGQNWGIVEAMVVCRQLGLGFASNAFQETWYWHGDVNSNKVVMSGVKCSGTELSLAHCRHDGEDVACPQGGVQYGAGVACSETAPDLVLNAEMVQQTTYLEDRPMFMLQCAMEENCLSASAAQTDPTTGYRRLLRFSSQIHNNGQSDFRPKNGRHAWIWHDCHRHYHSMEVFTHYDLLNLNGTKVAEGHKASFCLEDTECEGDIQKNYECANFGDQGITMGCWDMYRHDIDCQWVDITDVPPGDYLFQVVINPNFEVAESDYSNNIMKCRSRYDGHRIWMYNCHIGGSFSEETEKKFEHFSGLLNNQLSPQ
# Protocol: Standard single-spot uncoated electrode plates from MesoScale Discovery (MSD) (cat #L15XA-3) were coated overnight at 4° C. with a 30 μl volume of a solution of 3 μg/ml rabbit anti-human-LOXL2 polyclonal antibody formulated in phosphate-buffered saline (PBS). After coating, the wells of the plates were blocked by addition of a solution of 5% (w/v) Blocker A (MSD cat#R93AA-1) in PBS. After the blocking step, plates were washed 3 times in PBS containing 0.05% Tween-20 non-ionic detergent, using an automated plate washer. Human samples to be tested (serum or plasma) were prepared separately by diluting them 1:4 in PBS (1 part serum, 3 parts PBS). Samples were then added to each well of the plate. Samples were incubated with rotary shaking (300-600 rpm) for 2-3 hours at room temperature. After sample binding, the plates were again washed 3 times in PBS containing 0.05% Tween-20 detergent, using an automated plate washer. […]
# 1× Read Buffer T with Surfactants (MSD cat#R92TC-2) was added to each well, followed by immediate measurement of the plate on the MSD SectorImager 2400 instrument.
# Test human samples were given a relative quantitative value of LOXL2 by comparison to the calibrator curve on the same assay plate, comprised of purified recombinant human LOXL2 protein (R&D Systems) added in known concentrations to human serum or plasma pooled from normal healthy donors. […]
# [2] = Wk 240, Persistent Cirrhosis (n = 16), baseline 31%
# [3] = baseline to Wk 240, Non-Cirrhotic No Δ (n = 18)
# [4] = baseline to Wk 240, Persistent Cirrhosis (n = 16)
# [5] = baseline to Wk 240, Reversed Cirrhosis (n = 42)
molecule,measurement,setting,value
"CC(C)OC(=O)OCOP(=O)(CO[C@H](C)Cn1cnc2c(N)ncnc21)OCOC(=O)OC(C)C [TDF, tenofovir disoproxil fumarate]","Subjects with improvement in, or no progression of, liver fibrosis","[1]; 348 CHB subjects, 300 mg, 240 weeks",96.3%
same,Chance of regression of cirrhosis at week 240,[1]; baseline serum LOXL2 above 3000 pg/mL,29%
same,Chance of regression of cirrhosis at week 240,[1]; baseline serum LOXL2 between 1500 and 3000 pg/mL,70%
same,Chance of regression of cirrhosis at week 240,[1]; baseline serum LOXL2 less than 1500 pg/mL,88%
same,Patients with regression or improvement of Ishak fibrosis score,"[1]; of the 60 patients with baseline cirrhosis, 240 weeks",72%
same,Subjects with regression of cirrhosis,"[1]; of the 96 subjects with biopsy-proven cirrhosis at start, after 240 weeks",74%
same,Mean serum LOXL2,"serum LOXL2; Week 240, Ishak Stage 0-3, N 56 (baseline 510.2, N 18)",746.8 pg/mL
same,Mean serum LOXL2,"serum LOXL2; Week 240, Ishak Stage 4-6, N 25 (baseline 3298.2, N 63)",753.5 pg/mL
same,Mean serum LOXL2,"serum LOXL2; Week 240, all subjects N 81 (baseline 2678.6)",748.9 pg/mL
same,Subjects with serum LOXL2 >3000 pg/mL,"serum LOXL2; Wk 240, Non-Cirrhotic No Δ (n = 18), baseline 6%",0 (0%)
same,Subjects with serum LOXL2 <LoD,"serum LOXL2; Wk 240, Non-Cirrhotic No Δ (n = 18), baseline 22%",8 (44%)
same,Subjects with serum LOXL2 <LoQ,"serum LOXL2; Wk 240, Non-Cirrhotic No Δ (n = 18), baseline 56%",14 (78%)
same,Subjects with serum LOXL2 <1000 pg/mL,"serum LOXL2; Wk 240, Non-Cirrhotic No Δ (n = 18), baseline 72%",15 (83%)
same,Mean serum LOXL2,"serum LOXL2; Wk 240, Non-Cirrhotic No Δ (n = 18), baseline 798.4",436.8 pg/mL
same,Median serum LOXL2,"serum LOXL2; Wk 240, Non-Cirrhotic No Δ (n = 18), baseline <LOQ",<LOQ
same,Subjects with serum LOXL2 <LoD,"serum LOXL2; Wk 240, Persistent Cirrhosis (n = 16), baseline 6%",2 (13%)
same,Subjects with serum LOXL2 <LoQ,"serum LOXL2; Wk 240, Persistent Cirrhosis (n = 16), baseline 13%",8 (50%)
same,Subjects with serum LOXL2 <1000 pg/mL,serum LOXL2; [2],14 (88%)
same,Subjects with serum LOXL2 >3000 pg/mL,serum LOXL2; [2],0 (0%)
same,Median serum LOXL2,"serum LOXL2; Wk 240, Persistent Cirrhosis (n = 16), baseline 1863",LOQ
same,Mean serum LOXL2,"serum LOXL2; Wk 240, Persistent Cirrhosis (n = 16), baseline 9124.1",603.8 pg/mL
same,Subjects with serum LOXL2 <LoD,"serum LOXL2; Wk 240, Reversed Cirrhosis (n = 42), baseline 2%",13 (31%)
same,Subjects with serum LOXL2 >3000 pg/mL,"serum LOXL2; Wk 240, Reversed Cirrhosis (n = 42), baseline 5%",3 (7%)
same,Subjects with serum LOXL2 <LoQ,"serum LOXL2; Wk 240, Reversed Cirrhosis (n = 42), baseline 10%",29 (69%)
same,Subjects with serum LOXL2 <1000 pg/mL,"serum LOXL2; Wk 240, Reversed Cirrhosis (n = 42), baseline 48%",35 (83%)
same,Median serum LOXL2,"serum LOXL2; Wk 240, Reversed Cirrhosis (n = 42), baseline 1073",<LOQ
same,Mean serum LOXL2,"serum LOXL2; Wk 240, Reversed Cirrhosis (n = 42), baseline 1355.0",922.6 pg/mL
same,Subjects with Decrease in serum LOXL2,serum LOXL2; [3],9 (50%)
same,Subjects with Increase in serum LOXL2,serum LOXL2; [3],2 (11%)
same,Subjects with Decrease in serum LOXL2,serum LOXL2; [4],14 (88%)
same,Subjects with Increase in serum LOXL2,serum LOXL2; [4],0 (0%)
same,Subjects with Decrease in serum LOXL2,serum LOXL2; [5],37 (88%)
same,Subjects with Increase in serum LOXL2,serum LOXL2; [5],5 (12%)
same,Cirrhotic subjects with a reduction in LOXL2 levels,serum LOXL2; baseline to week 240,88%
same,Subjects with a reduction in serum LOXL2 levels,"serum LOXL2; of the 81 subjects, baseline to week 240",79%
same,Subjects with no change in LOXL2 levels,"serum LOXL2; of the 81 subjects, each with baseline below limit of quantitation",11%
"AB0024: humanized anti-LOXL2 monoclonal antibody; inhibits LOXL2 enzymatic activity, binds epitope within SRCR3-4; VH SEQ ID NO:8, VL SEQ ID NO:9 (antibody, V domains shown) VH: QVQLVQSGAEVKKPGASVKVSCKASGYAFTYYLIEWVRQAPGQGLEWIGVINPGSGGTNYNEKFKGRATITADKSTSTAYMELSSLRSEDTAVYFCARNWMNFDYWGQGTTVTVSS VL: DIVMTQTPLSLSVTPGQPASISCRSSKSLLHSNGNTYLYWFLQKPGQSPQFLIYRMSNLASGVPDRFSGSGSGTDFTLKISRVEAEDVGVYYCMQHLEYPYTFGGGTKVEIK",Time to progression,cancer; dose level 1 mpk,44 days and Stable and 57 days
same,Time to progression,cancer; dose level 3 mpk,38 days and 56 days and 42 days
same,Time to progression,cancer; dose level 10 mpk,57 days and 30 days and 51 days
same,Effect of antibody administration on LOXL2 signal in plasma/serum,LOXL2,did not clear or mask the LOXL2 signal
